Experimental data as given in PMC9887192, “Lethal activity of BRD4 PROTAC degrader QCA570 against bladder cancer cells” (Frontiers in Chemistry, 2023).

Molecular target: BRD4 (Homo sapiens, UniProt O60885)
Test: PROTAC degradation in bladder cancer cells by Western blot; blocked by JQ1, MG132 and MLN4924
Format: cell-based

DC50: ~1 nM
SMILES: Cc1nnc2n1-c1sc(C#Cc3cnn(CCCC#Cc4cccc5c4CN(C4CCC(=O)NC4=O)C5=O)c3)c(Cc3ccccc3)c1COC2 (stereo not shown) [QCA570]
